What follows are compounds tested against T1, Full-length, GST-tagged, human CaMKIIδ (Homo sapiens, UniProt Q13557) (assay: CaMKIIδ binding assay (TR-FRET with BODIPY-labeled probe ligand)). Conditions: CaMKIIδ binding assay, results of Table 2.
T1 construct: Full-Length, Glutathione-S-Transferase(GST)-Tagged, Human CaMKIIδ was purchased from Carna Biosciences; purchased Carna Biosciences 02-111
T1 sequence (Q13557 1-478 isoform Q13557-12): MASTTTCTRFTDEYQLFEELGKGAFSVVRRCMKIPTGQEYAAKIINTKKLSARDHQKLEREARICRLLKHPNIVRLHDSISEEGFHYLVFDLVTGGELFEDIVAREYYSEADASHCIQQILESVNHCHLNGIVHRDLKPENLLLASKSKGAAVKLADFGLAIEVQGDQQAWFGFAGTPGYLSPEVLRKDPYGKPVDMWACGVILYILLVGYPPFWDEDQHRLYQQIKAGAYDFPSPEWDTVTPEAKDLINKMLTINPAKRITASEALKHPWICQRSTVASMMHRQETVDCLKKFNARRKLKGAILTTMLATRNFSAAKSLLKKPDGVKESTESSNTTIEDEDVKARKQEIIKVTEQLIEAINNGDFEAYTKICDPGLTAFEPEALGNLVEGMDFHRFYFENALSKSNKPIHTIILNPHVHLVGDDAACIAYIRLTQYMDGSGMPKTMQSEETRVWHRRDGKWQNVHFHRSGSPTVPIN
Summary of the method: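 TR-FRET probe-displacement binding: 0.5 nM GST-CaMKIIδ with 10 μg/mL calmodulin, 1 mM CaCl2, 0.21 nM Tb-anti-GST Ab and 300 nM BODIPY probe in HEPES pH 7.6 buffer. Eight-point 4-fold dilutions, 1 hr at room temperature. IC50 from logistic fit; 100% inhibition defined by 3 μM parent compound.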
In the case of COc1ccc(N2CCNCC2)cc1Nc1ncc(-c2ccc(Cl)c(O[C@@H](C)Cn3cnnn3)c2)cn1 [Example 533, (S)-5-(3-((1-(1H-tetrazol-1-yl)propan-2-yl)oxy)-4-chlorophenyl)-N-(2-methoxy-5-(piperazin-1-yl)phenyl)pyrimidin-2-amine], the IC50 is reported as less than 10 nM.
Compound COC1CCC(N2CCC(n3cc(Nc4ncc(-c5ccc(Cl)c(OC(C)Cn6cnnn6)c5)cn4)c(C(F)(F)F)n3)CC2)CC1 (single isomer, unassigned; more polar) [Example 556, (S)-5-(3-((1-(1H-tetrazol-1-yl)propan-2-yl)oxy)-4-chlorophenyl)-N-(1-(1-(cis or trans-4-methoxycyclohexyl)piperidin-4-yl)-3-(trifluoromethyl)-1H-pyrazol-4-yl)pyrimidin-2-amine, more polar] has an IC50 of less than 10 nM.
COc1cnc(N2CCC(C)(O)CC2)cc1Nc1ncc(-c2ccc(Cl)c(O[C@@H](C)Cn3cnnn3)c2)cn1 [Example 481, (S)-1-(4-((5-(3-((1-(1H-tetrazol-1-yl)propan-2-yl)oxy)-4-chlorophenyl)pyrimidin-2-yl)amino)-5-methoxypyridin-2-yl)-4-methylpiperidin-4-ol] showed an IC50 of 10 to 100 nM.
In the case of C[C@@H](Cn1cnnn1)Oc1cc(-c2cnc(Nc3cn(C4CCN(C5CCOCC5)CC4)nc3C3CC3)nc2)ccc1C#N [Example 546, (S)-2-((1-(1H-tetrazol-1-yl)propan-2-yl)oxy)-4-(2-((3-cyclopropyl-1-(1-(tetrahydro-2H-pyran-4-yl)piperidin-4-yl)-1H-pyrazol-4-yl)amino)pyrimidin-5-yl)benzonitrile], the IC50 is reported as less than 10 nM.

Same assay, conditions: CaMKIIδ binding assay; activity class per Table 2
Work on C[C@@H](Cn1cnnn1)Oc1cc(-c2cnc(Nc3cn(CC4(O)CCN(C)CC4)nc3OCC(F)(F)F)nc2)ccc1Cl [Example 910, (S)-4-((4-((5-(3-((1-(1H-tetrazol-1-yl)propan-2-yl)oxy)-4-chlorophenyl)pyrimidin-2-yl)amino)-3-(2,2,2-trifluoroethoxy)-1H-pyrazol-1-yl)methyl)-1-methylpiperidin-4-ol] yielded an IC50 of less than 10 nM.
In the case of C[C@@H](Cn1cnnn1)Oc1cc(-c2cnc(Nc3cn(C4CC5(C4)CN(c4ccccn4)C5)nc3OCC(F)(F)F)nc2)ccc1Cl [Example 1001, (S)-5-(3-((1-(1H-tetrazol-1-yl)propan-2-yl)oxy)-4-chlorophenyl)-N-(1-(2-(pyridin-2-yl)-2-azaspiro[3.3]heptan-6-yl)-3-(2,2,2-trifluoroethoxy)-1H-pyrazol-4-yl)pyrimidin-2-amine], the IC50 is reported as less than 10 nM.
C[C@@H](COC(F)F)Oc1cc(-c2cnc(Nc3cn(C4CC5(C4)CN(C4CCOCC4)C5)nc3OCC(F)(F)F)nc2)ccc1C#N [Example 881, (S)-2-((1-(difluoromethoxy)propan-2-yl)oxy)-4-(2-((1-(2-(tetrahydro-2H-pyran-4-yl)-2-azaspiro[3.3]heptan-6-yl)-3-(2,2,2-trifluoroethoxy)-1H-pyrazol-4-yl)amino)pyrimidin-5-yl)benzonitrile] gave an IC50 of less than 10 nM.
With C[C@@H](Cn1cnnn1)Oc1cc(-c2cnc(Nc3cn(CC(O)CN4CCOCC4)nc3OCC(F)(F)F)nc2)ccc1Cl (stereo partly drawn) [Example 913, 1-(4-((5-(3-(((S)-1-(1H-tetrazol-1-yl)propan-2-yl)oxy)-4-chlorophenyl)pyrimidin-2-yl)amino)-3-(2,2,2-trifluoroethoxy)-1H-pyrazol-1-yl)-3-morpholinopropan-2-ol] the IC50 was less than 10 nM.
C[C@@H](Cn1cnnn1)Oc1cc(-c2cnc(Nc3cn(CC4(O)CCC5(CC4)OCCO5)nc3OCC(F)(F)F)nc2)ccc1Cl [Example 899, (S)-8-((4-((5-(3-((1-(1H-tetrazol-1-yl)propan-2-yl)oxy)-4-chlorophenyl)pyrimidin-2-yl)amino)-3-(2,2,2-trifluoroethoxy)-1H-pyrazol-1-yl)methyl)-1,4-dioxaspiro[4.5]decan-8-ol] was tested, and the IC50 was less than 10 nM.
C[C@@H](Cn1cnnn1)Oc1cc(-c2cnc(Nc3cn([C@H]4C[C@H](NC(=O)OC(C)(C)C)C4)nc3OCC(F)(F)F)nc2)ccc1Cl [Example 940, tert-butyl (trans-3-(4-((5-(3-(((S)-1-(1H-tetrazol-1-yl)propan-2-yl)oxy)-4-chlorophenyl)pyrimidin-2-yl)amino)-3-(2,2,2-trifluoroethoxy)-1H-pyrazol-1-yl)cyclobutyl)carbamate] showed an IC50 of 10 to 100 nM.
CC(C)c1nn(C2CC3(C2)CN(C2COC2)C3)cc1Nc1ncc(-c2ccc(Cl)c(O[C@@H](C)Cn3cnnn3)c2)cn1 [Example 935, (S)-5-(3-((1-(1H-tetrazol-1-yl)propan-2-yl)oxy)-4-chlorophenyl)-N-(3-isopropyl-1-(2-(oxetan-3-yl)-2-azaspiro[3.3]heptan-6-yl)-1H-pyrazol-4-yl)pyrimidin-2-amine] showed an IC50 of less than 10 nM.

Same assay, conditions: Table 2; CaMKIIδ binding assay, activity given as class A/B/C
C[C@@H](Cn1cccn1)Oc1cc(-c2cnc(Nc3cn([C@H]4CC[C@@H](N5CCOCC5)CC4)nc3C(F)(F)F)nc2)ccc1C#N [Example 785, 2-(((S)-1-(1H-pyrazol-1-yl)propan-2-yl)oxy)-4-(2-((1-(cis-4-morpholinocyclohexyl)-3-(trifluoromethyl)-1H-pyrazol-4-yl)amino)pyrimidin-5-yl)benzonitrile] showed an IC50 of 10 to 100 nM.
Work on C[C@@H](Cn1cnnn1)Oc1cc(-c2cnc(Nc3cn([C@H]4CC[C@@H](N5CCOCC5)CC4)nc3OC[C@@H]3CC3(F)F)nc2)ccc1Cl [Example 870, 5-(3-(((S)-1-(1H-tetrazol-1-yl)propan-2-yl)oxy)-4-chlorophenyl)-N-(3-(((S)-2,2-difluorocyclopropyl)methoxy)-1-(cis-4-morpholinocyclohexyl)-1H-pyrazol-4-yl)pyrimidin-2-amine] yielded an IC50 of less than 10 nM.
Compound COc1cccc(-n2cc(Nc3ncc(-c4ccc(Cl)c(O[C@@H](C)Cn5cnnn5)c4)cn3)c(OCC(F)(F)F)n2)n1 [Example 878, (S)-5-(3-((1-(1H-tetrazol-1-yl)propan-2-yl)oxy)-4-chlorophenyl)-N-(1-(6-methoxypyridin-2-yl)-3-(2,2,2-trifluoroethoxy)-1H-pyrazol-4-yl)pyrimidin-2-amine] has an IC50 of no less than 100 nM.
C[C@@H](Cn1cnnn1)Oc1cc(-c2cnc(Nc3cn(C4CCCC4)nc3C(F)(F)F)nc2)ccc1Cl [Example 739, (S)-5-(3-((1-(1H-tetrazol-1-yl)propan-2-yl)oxy)-4-chlorophenyl)-N-(1-cyclopentyl-3-(trifluoromethyl)-1H-pyrazol-4-yl)pyrimidin-2-amine] was tested, and the IC50 was 10 to 100 nM.
C[C@@H](Cn1cc(F)cn1)Oc1cc(-c2cnc(Nc3cn(C4CCN(C5CCOCC5)CC4)nc3OCC(F)(F)F)nc2)ccc1C#N [Example 819, (S)-2-((1-(4-fluoro-1H-pyrazol-1-yl)propan-2-yl)oxy)-4-(2-((1-(1-(tetrahydro-2H-pyran-4-yl)piperidin-4-yl)-3-(2,2,2-trifluoroethoxy)-1H-pyrazol-4-yl)amino)pyrimidin-5-yl)benzonitrile] was tested, and the IC50 was 10 to 100 nM.

Same assay, conditions: Table 2; activity class for CaMKIIδ
With C[C@@H](Cn1cnnn1)Oc1cc(-c2cnc(Nc3ccn(C(C)(C)C)n3)nc2)ccc1Cl [Example 715, (S)-5-(3-((1-(1H-tetrazol-1-yl)propan-2-yl)oxy)-4-chlorophenyl)-N-(1-(tert-butyl)-1H-pyrazol-3-yl)pyrimidin-2-amine] the IC50 was no less than 100 nM.
For CCC(C)n1cc(Nc2ncc(-c3ccc(Cl)c(O[C@@H](C)Cn4cnnn4)c3)cn2)c(C(F)(F)F)n1 (stereo partly drawn) [Example 608, 5-(3-(((S)-1-(1H-tetrazol-1-yl)propan-2-yl)oxy)-4-chlorophenyl)-N-(1-(sec-butyl)-3-(trifluoromethyl)-1H-pyrazol-4-yl)pyrimidin-2-amine], the IC50 was 10 to 100 nM.
Cc1cc(Nc2ncc(-c3ccc(Cl)c(O[C@@H](C)Cn4cnnn4)c3)cn2)n(-c2ccccn2)n1 [Example 660, (S)-5-(3-((1-(1H-tetrazol-1-yl)propan-2-yl)oxy)-4-chlorophenyl)-N-(3-methyl-1-(pyridin-2-yl)-1H-pyrazol-5-yl)pyrimidin-2-amine] gave an IC50 of no less than 100 nM.
Compound C[C@@H](Cn1cnnn1)Oc1cc(-c2cnc(Nc3cnn(CC4CC4)c3)nc2)ccc1Cl [Example 725, (S)-5-(3-((1-(1H-tetrazol-1-yl)propan-2-yl)oxy)-4-chlorophenyl)-N-(1-(cyclopropylmethyl)-1H-pyrazol-4-yl)pyrimidin-2-amine] has an IC50 of 10 to 100 nM.
Work on C[C@@H](Cn1cnnn1)Oc1cc(-c2cnc(Nc3cc(C4CCN(C5COC5)CC4)c(F)cc3F)nc2)ccc1Cl [Example 684, (S)-5-(3-((1-(1H-tetrazol-1-yl)propan-2-yl)oxy)-4-chlorophenyl)-N-(2,4-difluoro-5-(1-(oxetan-3-yl)piperidin-4-yl)phenyl)pyrimidin-2-amine] yielded an IC50 of 10 to 100 nM.
Work on C[C@@H](Cn1cnnn1)Oc1cc(-c2cnc(Nc3cn(C4CCOCC4)nc3C(F)(F)F)nc2)ccc1Cl [Example 645, (S)-5-(3-((1-(1H-tetrazol-1-yl)propan-2-yl)oxy)-4-chlorophenyl)-N-(1-(tetrahydro-2H-pyran-4-yl)-3-(trifluoromethyl)-1H-pyrazol-4-yl)pyrimidin-2-amine] yielded an IC50 of 10 to 100 nM.
COc1cc(N2C[C@@H]3C[C@H]2CN3)ccc1Nc1ncc(-c2ccc(Cl)c(O[C@@H](C)Cn3cnnn3)c2)cn1 [Example 634, 5-(3-(((S)-1-(1H-tetrazol-1-yl)propan-2-yl)oxy)-4-chlorophenyl)-N-(4-((1S,45)-2,5-diazabicyclo[2.2.1]heptan-2-yl)-2-methoxyphenyl)pyrimidin-2-amine] showed an IC50 of 10 to 100 nM.
Compound Cc1cc(Nc2ncc(-c3ccc(Cl)c(O[C@@H](C)Cn4cnnn4)c3)cn2)n(CC(F)(F)F)n1 [Example 659, (S)-5-(3-((1-(1H-tetrazol-1-yl)propan-2-yl)oxy)-4-chlorophenyl)-N-(3-methyl-1-(2,2,2-trifluoroethyl)-1H-pyrazol-5-yl)pyrimidin-2-amine] has an IC50 of 10 to 100 nM.
COc1cc(N2CCN3CCCC3C2)ccc1Nc1ncc(-c2ccc(Cl)c(O[C@@H](C)Cn3cnnn3)c2)cn1 (stereo partly drawn) [Example 672, 5-(3-(((S)-1-(1H-tetrazol-1-yl)propan-2-yl)oxy)-4-chlorophenyl)-N-(4-(hexahydropyrrolo[1,2-a]pyrazin-2(1H)-yl)-2-methoxyphenyl)pyrimidin-2-amine] gave an IC50 of less than 10 nM.
